Reference: ChEMBL document CHEMBL1139062, “Synthesis and biological evaluation of new conformationally biased integrin ligands based on a tetrahydroazoninone scaffold” (Bioorg Med Chem Lett, 2007)

Assays:
Assay type in all cases: protein-complex assay
[1] = target: T1, Integrin alpha-V/beta-3 (Homo sapiens) (UniProt P05106+P06756); assay: Displacement of [125I]echistatin from integrin alpha-V-beta-3 receptor at 10 uM
[2] = target: T1, Integrin alpha-V/beta-3 (Homo sapiens); assay: Displacement of [125I]echistatin from integrin alpha-V-beta-3 receptor at 1 uM
[3] = target: T1, Integrin alpha-V/beta-3 (Homo sapiens); assay: Displacement of [125I]echistatin from integrin alpha-V-beta-3 receptor at 0.001 uM
[4] = target: T2, Integrin alpha-V/beta-5 (Homo sapiens) (UniProt P06756+P18084); assay: Displacement of [125I]echistatin from integrin alpha-V-beta-5 receptor at […]
[5] = target: T1, Integrin alpha-V/beta-3 (Homo sapiens); assay: Displacement of [125I]echistatin from integrin alpha-V-beta-3 receptor at 0.01 uM
[6] = target: T2, Integrin alpha-V/beta-5 (Homo sapiens); assay: Displacement of [125I]echistatin from integrin alpha-V-beta-5 receptor at 1000 uM
[7] = target: T1, Integrin alpha-V/beta-3 (Homo sapiens); assay: Displacement of [125I]echistatin from integrin alpha-V-beta-3 receptor at 0.1 uM

Compound | inhibition [1] [%] | inhibition [2] [%] | inhibition [3] [%] | inhibition [4] [%] | inhibition [5] [%] | inhibition [6] [%] | inhibition [7] [%]
CC12CC/C=C\CC(NC1=O)C(=O)N[C@H](CCCNC(=N)N)C(=O)NCC(=O)N[C@@H](CC(=O)O)C(=O)N2 (stereo in doubt; 3b) | 62 | 30 | – | – | – | – | –
CC12CC/C=C\CC(NC1=O)C(=O)N[C@H](CCCNC(=N)N)C(=O)NCC(=O)N[C@@H](CC(=O)O)C(=O)N2Cc1ccccc1 (stereo in doubt; 2b) | 52 | 50 | 5 | 15 | 15 | 13 | 53
CC12CC/C=C\CC(NC1=O)C(=O)N[C@H](CCCNC(=N)N)C(=O)NCC(=O)N[C@@H](CC(=O)O)C(=O)N2Cc1ccccc1 (stereo in doubt; 2a) | 48 | 49 | – | 17 | – | 13 | –

Second part, the compound after the results:

inhibition [1] [%] | inhibition [2] [%] | inhibition [3] [%] | inhibition [4] [%] | inhibition [5] [%] | inhibition [6] [%] | inhibition [7] [%] | Compound
62 | 30 | – | – | – | – | – | CC12CC/C=C\CC(NC1=O)C(=O)N[C@H](CCCNC(=N)N)C(=O)NCC(=O)N[C@@H](CC(=O)O)C(=O)N2 (stereo in doubt; 3a)
– | – | 85 | – | – | – | – | N=C(N)NCCC[C@@H]1NC(=O)CNC(=O)[C@@H](CC(=O)O)N[C@H]2CCC[C@H]3CC[C@H](C1=O)N3C2=O
